Source: patent publication US20100292205A1, “Pyrimidone Compounds As GSK-3 Inhibitors” (PFIZER INC., priority 2006, published 2010)

Each molecule was assayed against T1, Recombinant human GSK3β (Homo sapiens, UniProt P49841) (assay: GSK-3β (Glycogen Synthase Kinase) cell free enzyme assay). Conditions: cell free enzyme assay; Examples 62-155.
T1 construct: His-tag; made in house; host or cells: Sf9 insect cells / baculovirus
Format: biochemical
How it was run: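 This cell-free kinase assay measured [33P] transfer from [33P]ATP gamma phosphate into the biotinylated peptide bio-LC-S-R-H-S-S-P-H-Q-pS-E-D-E-E-E-OH. After 60 min at RT, reactions were stopped with 0.66 volume of PBS lacking Ca or Mg containing 12.5 mM EDTA, 0.25% Triton-X 100, 125 uM ATP and 6.2 mg/ml streptavidin SPA beads. Bead-bound radioactivity was counted as CPM on a Trilux scintillation counter.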

T1 sequence (P49841 whole entry): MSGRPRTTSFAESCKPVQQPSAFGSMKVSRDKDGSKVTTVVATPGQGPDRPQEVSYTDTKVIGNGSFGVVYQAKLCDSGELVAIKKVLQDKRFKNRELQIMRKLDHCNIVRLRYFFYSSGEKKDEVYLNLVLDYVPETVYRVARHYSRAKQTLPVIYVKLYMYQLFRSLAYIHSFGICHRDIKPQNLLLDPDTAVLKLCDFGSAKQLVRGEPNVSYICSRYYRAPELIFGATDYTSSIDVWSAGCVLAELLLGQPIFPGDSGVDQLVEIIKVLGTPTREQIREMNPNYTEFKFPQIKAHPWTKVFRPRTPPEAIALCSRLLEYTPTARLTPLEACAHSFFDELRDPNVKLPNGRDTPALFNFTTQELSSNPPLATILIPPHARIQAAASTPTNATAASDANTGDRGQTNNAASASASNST

SMILES | IC50 [nM]
CN(c1nc(-c2ccncc2F)cc(=O)n1C)[C@H]1[C@@H]2CN(C(=O)c3cccnc3Cl)C[C@@H]21 [Example 111, 2-[{(1R,5S,6s)-3-[(2-Chloropyridin-3-yl)carbonyl]-3-azabicyclo[3.1.0]hex-6-yl}(methyl)amino]-6-(3-fluoropyridin-4-yl)-3-methylpyrimidin-4(3H)-one] | 2.2
CN(c1nc(-c2ccncc2F)cc(=O)n1C)[C@H]1[C@@H]2CN(C(=O)c3ccnc(Cl)c3)C[C@@H]21 [Example 112, 2-{[(1R,5S,6s)-3-(2-Chloroisonicotinoyl)-3-azabicyclo[3.1.0]hex-6-yl](methyl)amino}-6-(3-fluoropyridin-4-yl)-3-methylpyrimidin-4(3H)-one] | 2.63
CN(c1nc(-c2ccncc2F)cc(=O)n1C)[C@H]1[C@@H]2CN(C(=O)Cc3ccccc3)C[C@@H]21 [Example 115, 6-(3-Fluoropyridin-4-yl)-3-methyl-2-{methyl[(1R,5S,6s)-3-(phenylacetyl)-3-azabicyclo[3.1.0]hex-6-yl]amino}pyrimidin-4(3H)-one] | 14.2
CN(c1nc(-c2ccncc2F)cc(=O)n1C)[C@H]1[C@@H]2CN(C(=O)c3cc(Cl)cc(Cl)c3)C[C@@H]21 [Example 116, 2-{[(1R,5S,6s)-3-(3,5-Dichlorobenzoyl)-3-azabicyclo[3.1.0]hex-6-yl](methyl)amino}-6-(3-fluoropyridin-4-yl)-3-methylpyrimidin-4(3H)-one] | 4.4
CN(c1nc(-c2ccncc2F)cc(=O)n1C)[C@H]1[C@@H]2CN(C(=O)c3c(F)cc(F)cc3F)C[C@@H]21 [Example 117, 6-(3-Fluoropyridin-4-yl)-3-methyl-2-{methyl[(1R,5S,6s)-3-(2,4,6-trifluorobenzoyl)-3-azabicyclo[3.1.0]hex-6-yl]amino}pyrimidin-4(3H)-one] | 1.84
CC(=O)O[C@@H](C)C(=O)N1C[C@@H]2[C@H](C1)[C@H]2N(C)c1nc(-c2ccncc2F)cc(=O)n1C [Example 119, (1S)-2-[(1R,5S,6R)-6-{[4-(3-Fluoropyridin-4-yl)-1-methyl-6-oxo-1,6-dihydropyrimidin-2-yl](methyl)amino}-3-azabicyclo[3.1.0]hex-3-yl]-1-methyl-2-oxoethyl acetate] | 32.9
CN(c1nc(-c2ccncc2F)cc(=O)n1C)[C@H]1[C@@H]2CN(C(=O)C(C)(C)C)C[C@@H]21 [Example 121, 2-{[(1R,5S,6s)-3-(2,2-Dimethylpropanoyl)-3-azabicyclo[3.1.0]hex-6-yl](methyl)amino}-6-(3-fluoropyridin-4-yl)-3-methylpyrimidin-4(3H)-one] | 1.41
CCCCOc1ccc(C(=O)N2C[C@@H]3[C@H](C2)[C@H]3N(C)c2nc(-c3ccncc3F)cc(=O)n2C)cc1 [Example 123, 2-{[(1R,5S,6s)-3-(4-Butoxybenzoyl)-3-azabicyclo[3.1.0]hex-6-yl](methyl)amino}-6-(3-fluoropyridin-4-yl)-3-methylpyrimidin-4(3H)-one] | 13.6
CN(c1nc(-c2ccncc2F)cc(=O)n1C)[C@H]1[C@@H]2CN(C(=O)c3cccc(C(F)(F)F)c3)C[C@@H]21 [Example 125, 6-(3-Fluoropyridin-4-yl)-3-methyl-2-(methyl{(1R,5S,6s)-3-[3-(trifluoromethyl)benzoyl]-3-azabicyclo[3.1.0]hex-6-yl}amino)pyrimidin-4(3H)-one] | 2.11
CN(c1nc(-c2ccncc2F)cc(=O)n1C)[C@H]1[C@@H]2CN(C(=O)c3ccc(Cl)nc3)C[C@@H]21 [Example 126, 2-[{(1R,5S,6s)-3-[(6-Chloropyridin-3-yl)carbonyl]-3-azabicyclo[3.1.0]hex-6-yl}(methyl)amino]-6-(3-fluoropyridin-4-yl)-3-methylpyrimidin-4(3H)-one] | 6.98
CCC(CC)C(=O)N1C[C@@H]2[C@H](C1)[C@H]2N(C)c1nc(-c2ccncc2F)cc(=O)n1C [Example 127, 2-{[(1R,5S,6s)-3-(2-Ethylbutanoyl)-3-azabicyclo[3.1.0]hex-6-yl](methyl)amino}-6-(3-fluoropyridin-4-yl)-3-methylpyrimidin-4(3H)-one] | 4.41
CCCCC(=O)N1C[C@@H]2[C@H](C1)[C@H]2N(C)c1nc(-c2ccncc2F)cc(=O)n1C [Example 128, 6-(3-Fluoropyridin-4-yl)-3-methyl-2-{methyl[(1R,5S,6s)-3-pentanoyl-3-azabicyclo[3.1.0]hex-6-yl]amino}pyrimidin-4(3H)-one] | 16.4
COC(=O)CCC(=O)N1C[C@@H]2[C@H](C1)[C@H]2N(C)c1nc(-c2ccncc2F)cc(=O)n1C [Example 129, Methyl 4-[(1R,5S,6s)-6-{[4-(3-fluoropyridin-4-yl)-1-methyl-6-oxo-1,6-dihydropyrimidin-2-yl](methyl)amino}-3-azabicyclo[3.1.0]hex-3-yl]-4-oxobutanoate] | 84.4
Cc1ccc(C(=O)N2C[C@@H]3[C@H](C2)[C@H]3N(C)c2nc(-c3ccncc3F)cc(=O)n2C)cc1F [Example 133, 2-{[(1R,5S,6s)-3-(3-Fluoro-4-methylbenzoyl)-3-azabicyclo[3.1.0]hex-6-yl](methyl)amino}-6-(3-fluoropyridin-4-yl)-3-methylpyrimidin-4(3H)-one] | 2.91
CN(c1nc(-c2ccncc2F)cc(=O)n1C)C1[C@H]2CN(C(=O)C34CC[C@@](C)(C(=O)O3)C4(C)C)C[C@@H]12 (stereo partly drawn) [Example 134, 6-(3-Fluoropyridin-4-yl)-3-methyl-2-{methyl[(1R,5S,6R)-3-{[(1S,4R)-4,7,7-trimethyl-3-oxo-2-oxabicyclo[2.2.1]hept-1-yl]carbonyl}-3-azabicyclo[3.1.0]hex-6-yl]amino}pyrimidin-4(3H)-one] | 65.7
CCC(=O)N1C[C@@H]2[C@H](C1)[C@H]2N(C)c1nc(-c2ccncc2F)cc(=O)n1C [Example 135, 6-(3-Fluoropyridin-4-yl)-3-methyl-2-{methyl[(1R,5S,6s)-3-propionyl-3-azabicyclo[3.1.0]hex-6-yl]amino}pyrimidin-4(3H)-one] | 5.46
CN(c1nc(-c2ccncc2F)cc(=O)n1C)[C@H]1[C@@H]2CN(C(=O)c3ccc(C#N)cc3)C[C@@H]21 [Example 136, 4-{[(1R,5S,6s)-6-{[4-(3-Fluoropyridin-4-yl)-1-methyl-6-oxo-1,6-dihydropyrimidin-2-yl](methyl)amino}-3-azabicyclo[3.1.0]hex-3-yl]carbonyl}benzonitrile] | 42.6
CN(c1nc(-c2ccncc2F)cc(=O)n1C)[C@H]1[C@@H]2CN(C(=O)c3cccc(F)c3F)C[C@@H]21 [Example 137, 2-{[(1R,5S,6s)-3-(2,3-Difluorobenzoyl)-3-azabicyclo[3.1.0]hex-6-yl](methyl)amino}-6-(3-fluoropyridin-4-yl)-3-methylpyrimidin-4(3H)-one] | 3.29

Further lines, results first:

IC50 [nM] | SMILES
8.57 | CN(c1nc(-c2ccncc2F)cc(=O)n1C)[C@H]1[C@@H]2CN(C(=O)c3ccc(OC(F)F)cc3)C[C@@H]21 [Example 113, 2-[{(1R,5S,6s)-3-[4-(Difluoromethoxy)benzoyl]-3-azabicyclo[3.1.0]hex-6-yl}(methyl)amino]-6-(3-fluoropyridin-4-yl)-3-methylpyrimidin-4(3H)-one]
15.3 | CC(C)C(=O)N1C[C@@H]2[C@H](C1)[C@H]2N(C)c1nc(-c2ccncc2F)cc(=O)n1C [Example 114, 6-(3-Fluoropyridin-4-yl)-2-{[(1R,5S,6s)-3-isobutyryl-3-azabicyclo[3.1.0]hex-6-yl](methyl)amino}-3-methylpyrimidin-4(3H)-one]
1.11 | CN(c1nc(-c2ccncc2F)cc(=O)n1C)[C@H]1[C@@H]2CN(C(=O)c3ccccc3F)C[C@@H]21 [Example 118, 2-{[(1R,5S,6s)-3-(2-Fluorobenzoyl)-3-azabicyclo[3.1.0]hex-6-yl](methyl)amino}-6-(3-fluoropyridin-4-yl)-3-methylpyrimidin-4(3H)-one]
4.52 | CN(c1nc(-c2ccncc2F)cc(=O)n1C)[C@H]1[C@@H]2CN(C(=O)c3cnn(C)c3Cl)C[C@@H]21 [Example 120, 2-[{(1R,5S,6s)-3-[(5-Chloro-1-methyl-1H-pyrazol-4-yl)carbonyl]-3-azabicyclo[3.1.0]hex-6-yl}(methyl)amino]-6-(3-fluoropyridin-4-yl)-3-methylpyrimidin-4(3H)-one]
15.1 | CN(c1nc(-c2ccncc2F)cc(=O)n1C)[C@H]1[C@@H]2CN(C(=O)c3ccc(C(F)(F)F)cc3)C[C@@H]21 [Example 122, 6-(3-Fluoropyridin-4-yl)-3-methyl-2-(methyl{(1R,5S,6s)-3-[4-(trifluoromethyl)benzoyl]-3-azabicyclo[3.1.0]hex-6-yl}amino)pyrimidin-4(3H)-one]
4.58 | CN(c1nc(-c2ccncc2F)cc(=O)n1C)[C@H]1[C@@H]2CN(C(=O)c3ccc(F)c(Cl)c3)C[C@@H]21 [Example 124, 2-{[(1R,5S,6s)-3-(3-Chloro-4-fluorobenzoyl)-3-azabicyclo[3.1.0]hex-6-yl](methyl)amino}-6-(3-fluoropyridin-4-yl)-3-methylpyrimidin-4(3H)-one]
1.69 | CN(c1nc(-c2ccncc2F)cc(=O)n1C)[C@H]1[C@@H]2CN(C(=O)c3cc(F)ccc3F)C[C@@H]21 [Example 130, 2-{[(1R,5S,6s)-3-(2,5-Difluorobenzoyl)-3-azabicyclo[3.1.0]hex-6-yl](methyl)amino}-6-(3-fluoropyridin-4-yl)-3-methylpyrimidin-4(3H)-one]
1.57 | CN(c1nc(-c2ccncc2F)cc(=O)n1C)[C@H]1[C@@H]2CN(C(=O)CC(C)(C)C)C[C@@H]21 [Example 131, 2-{[(1R,5S,6s)-3-(3,3-Dimethylbutanoyl)-3-azabicyclo[3.1.0]hex-6-yl](methyl)amino}-6-(3-fluoropyridin-4-yl)-3-methylpyrimidin-4(3H)-one]
1.05 | Cc1cccc(C(=O)N2C[C@@H]3[C@H](C2)[C@H]3N(C)c2nc(-c3ccncc3F)cc(=O)n2C)c1 [Example 132, 6-(3-Fluoropyridin-4-yl)-3-methyl-2-{methyl[(1R,5S,6s)-3-(3-methylbenzoyl)-3-azabicyclo[3.1.0]hex-6-yl]amino}pyrimidin-4(3H)-one]
